Assay results from BindingDB's records for doi:10.1016/j.ejmech.2018.02.025 (Chia Tai Tianqing Pharmaceutical Group, 2018).

Experiments:
[1] = Inhibition of NS5A in HCV genotype 1b infected in human HuH7 replicon cells assessed as reduction in viral replication after 3 days by luciferase reporter gene assay
[2] = Inhibition of NS5A in HCV genotype 1a infected in human HuH7 replicon cells assessed as reduction in viral replication after 3 days by luciferase reporter gene assay
[3] = Inhibition of NS5A in HCV genotype 5a infected in human HuH7 replicon cells expressing HCV genotype 1b chimeric replicon assessed as reduction in viral replication after 3 days by luciferase reporter gene assay
[4] = Inhibition of NS5A in HCV genotype 6a infected in human HuH7 replicon cells expressing HCV genotype 1b chimeric replicon assessed as reduction in viral replication after 3 days by luciferase reporter gene assay
[5] = Inhibition of NS5A in HCV genotype 2a JFH-1 infected in human Huh7.5.1 cells assessed as reduction in viral replication after 3 days by luciferase reporter gene assay
[6] = Inhibition of NS5A in HCV genotype 3a infected in human HuH7 replicon cells expressing HCV genotype 1b chimeric replicon assessed as reduction in viral replication after 3 days by luciferase reporter gene assay

| Compound | EC50 [1] | EC50 [2] | EC50 [3] | EC50 [4] | EC50 [5] | EC50 [6] |
| --- | --- | --- | --- | --- | --- | --- |
| COC(=O)N[C@H](C(=O)N1CCC[C@H]1C(=O)Nc1ccc([C@H]2CC[C@@H](c3ccc(NC(=O)[C@@H]4CCCN4C(=O)[C@@H](NC(=O)OC)C(C)C)cc3)N2c2ccc([Si](C)(C)C)cc2)cc1)C(C)C | 8 pM | > 500 pM |  |  |  |  |
| COC(=O)N[C@H](C(=O)N1CCC[C@H]1C(=O)Nc1ccc([C@@H]2CC[C@@H](c3ccc(NC(=O)[C@@H]4CCCN4C(=O)[C@@H](NC(=O)OC)C(C)C)cc3)N2c2ccc([Si](C)(C)C)cc2)cc1)C(C)C | 4 pM | 14 pM | 1 pM | 1410 pM | 2.5 pM | 38 pM |
| CC[Si](CC)(CC)c1ccc(N2[C@@H](c3ccc(NC(=O)[C@@H]4CCCN4C(=O)[C@@H](NC(=O)OC)C(C)C)cc3)CC[C@H]2c2ccc(NC(=O)[C@@H]3CCCN3C(=O)[C@@H](NC(=O)OC)C(C)C)cc2)cc1 | 7 pM | > 500 pM |  |  |  |  |
| COC(=O)N[C@H](C(=O)N1CCC[C@H]1C(=O)Nc1ccc([C@@H]2CC[C@@H](c3ccc(NC(=O)[C@@H]4CCCN4C(=O)[C@@H](NC(=O)OC)C(C)C)cc3)N2c2ccc([Si](C)(C)C(C)(C)C)cc2)cc1)C(C)C | 3 pM | 11 pM | 1 pM | 925 pM | 1.1 pM | 12 pM |
| COC(=O)N[C@H](C(=O)N1CCC[C@H]1C(=O)Nc1ccc([C@H]2CC[C@H](c3ccc(NC(=O)[C@@H]4CCCN4C(=O)[C@@H](NC(=O)OC)C(C)C)cc3)N2c2ccc([Si](C)(C)C)cc2)cc1)C(C)C | 7 pM | 118 pM |  |  |  |  |
| CC[Si](CC)(CC)c1ccc(N2[C@@H](c3ccc(NC(=O)[C@@H]4CCCN4C(=O)[C@@H](NC(=O)OC)C(C)C)cc3)CC[C@@H]2c2ccc(NC(=O)[C@@H]3CCCN3C(=O)[C@@H](NC(=O)OC)C(C)C)cc2)cc1 | 6 pM | 41 pM |  |  |  |  |
| CC[Si](CC)(CC)c1ccc(N2[C@H](c3ccc(NC(=O)[C@@H]4CCCN4C(=O)[C@@H](NC(=O)OC)C(C)C)cc3)CC[C@H]2c2ccc(NC(=O)[C@@H]3CCCN3C(=O)[C@@H](NC(=O)OC)C(C)C)cc2)cc1 | 3 pM | 7 pM | 1 pM | 445 pM |  | 10 pM |
| COC(=O)N[C@H](C(=O)N1CCC[C@H]1C(=O)Nc1ccc([C@@H]2CC[C@@H](c3ccc(NC(=O)[C@@H]4CCCN4C(=O)[C@@H](NC(=O)OC)C(C)C)cc3)N2c2ccc(C(C)(C)C)cc2)cc1)C(C)C [CHEBI:85183] | 5 pM | 30 pM | 4 pM | 3390 pM | 2.6 pM | 86 pM |
